This passage reports inhibition and IC50 results from patent US20090270435A1 (priority 2006, published 2009).

Counter-ions that a name gives are not always drawn.

Assay [1] has as its system hepatic fatty acid synthesis. Kind of assay: Measurement of fatty acid synthesis inhibition in experimental animals ([2-14C]acetate into saponifiable lipids in liver). The following applies: Rattus norvegicus, po; read-out: Percent Inhibition at 30 mg/kg. It counts as in vivo, Sprague Dawley rats. An excerpt: The ACC inhibitory activity of compounds of this invention, and the salts of such compounds, can be confirmed in vivo by evaluation of their ability to inhibit hepatic fatty acid production and to stimulate whole body fatty acid oxidation using methods based on standard procedures. For example, since ACC catalyzes the first committed step in the biosynthesis of fatty acids, the in vivo activity of these compounds can be confirmed by measuring the ability of the compounds of this invention, and the salts of such compounds, to prevent the formation of radio labeled fatty acids from radio labeled acetate in the livers of treated mammals.
[1] Measurement of fatty acid synthesis inhibition in experimental animals. Incorporation of [2-^14C]acetate into saponifyable lipids in the livers of mammals (e.g. CDI mice, C57BI/6J-ob/ob mice, Sprague Dawley rats (available from Charles River Boston, Mass. or Jackson Labs Bar Harbor, Me.)) can be measured essentially as previously described for assessment of hepatic sterol synthesis (Harwood et al, Biochem. Pharmacol, 40: 1281-1293, 1990; Harwood et al. Biochem. Pharmacol. 53: 839-864, 1997) with the following modifications to allow for assessment fatty acid synthesis. For example, Sprague Dawley rats are administered a 0.1 ml per 40 g body weight of an oral bolus of vehicle (e.g. water or 0.5% methylcellulose in water)±test compound. One to four hours after compound administration, animals receive an intraperitoneal injection of 0.5 ml of [2-^14C]acetate (64 μCi/ml; 57 mCi/mmol). One hour after radiolabel administration, animals are sacrificed by CO2 asphyxiation and two, 0.75 g liver pieces are removed and saponified at […]. for 120 minutes in 1.5 ml of 2.5 M NaOH. After saponification, 2.5 ml of absolute EtOH are added to each sample and the solutions are mixed and allowed to stand overnight. Petroleum ether, 4.8 ml, is then added to each sample and the mixtures are first shaken vigorously for 2 minutes then centrifuged at 1000×g in a bench-top Sorvall®9 for 5 minutes. The resultant petroleum ether layers, which contain the nonsaponifyable lipids (e.g. cholesterol, post-squalene cholesterol precursors and other non-saponifiable lipids), are removed and discarded. The remaining aqueous layer (containing fatty acid sodium salts) is acidified to pH<2 by addition of 0.6 ml of 12 M HCl and extracted two times with 4.8 ml of petroleum ether. The pooled organic fractions (containing protonated fatty acids) are transferred to liquid scintillation vials, dried under nitrogen, dissolved in 7 ml of Aqua sol liquid scintillation fluid, and assessed for radioactivity using a liquid scintillation counter. Inhibition of fatty acid synthesis by the test compound is expressed as the concentration required to reduce by 50% the dpm [2-^14C]acetate incorporated into saponifiable lipids during the 1 hour interval between radio labeled acetate injection and CO2 asphyxiation.
Some compounds of the present were evaluated for inhibition of fatty acid synthesis as described above. As shown below, these compounds were all observed to inhibit the synthesis of fatty acids in vivo.

In the next assay the target is T1, ACC1 from rat liver (Rattus norvegicus, UniProt P11497).
T1 construct: The livers (for ACC1 preparation) or skeletal muscle tissue (for ACC2 preparation) are removed; from tissue; host or cells: liver of male CD rats (fasted, then fed a high sucrose diet)
In words: Direct inhibition of ACC1 activity (14C-bicarbonate incorporation). It counts as biochemical. In a few lines:
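ACC1 partially purified from livers of fasted/sucrose-refed male rats by PEG and ammonium sulfate fractionation, then preincubated 30 min at 37°C with 10 mM citrate and 1.0 mM MgCl2. Reaction ran 7 min at 37°C, stopped with HCl; acid-stable radioactivity counted by scintillation; HCl-first tubes served as blanks.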

For assay [2], the target named is T2, ACC2 from rat skeletal muscle (Rattus norvegicus, UniProt Q1HEC0).
T2 construct: The livers (for ACC1 preparation) or skeletal muscle tissue (for ACC2 preparation) are removed; from tissue; host or cells: skeletal muscle of male CD rats (fasted, then fed a high sucrose diet)
T2 sequence (Q1HEC0 17-2455): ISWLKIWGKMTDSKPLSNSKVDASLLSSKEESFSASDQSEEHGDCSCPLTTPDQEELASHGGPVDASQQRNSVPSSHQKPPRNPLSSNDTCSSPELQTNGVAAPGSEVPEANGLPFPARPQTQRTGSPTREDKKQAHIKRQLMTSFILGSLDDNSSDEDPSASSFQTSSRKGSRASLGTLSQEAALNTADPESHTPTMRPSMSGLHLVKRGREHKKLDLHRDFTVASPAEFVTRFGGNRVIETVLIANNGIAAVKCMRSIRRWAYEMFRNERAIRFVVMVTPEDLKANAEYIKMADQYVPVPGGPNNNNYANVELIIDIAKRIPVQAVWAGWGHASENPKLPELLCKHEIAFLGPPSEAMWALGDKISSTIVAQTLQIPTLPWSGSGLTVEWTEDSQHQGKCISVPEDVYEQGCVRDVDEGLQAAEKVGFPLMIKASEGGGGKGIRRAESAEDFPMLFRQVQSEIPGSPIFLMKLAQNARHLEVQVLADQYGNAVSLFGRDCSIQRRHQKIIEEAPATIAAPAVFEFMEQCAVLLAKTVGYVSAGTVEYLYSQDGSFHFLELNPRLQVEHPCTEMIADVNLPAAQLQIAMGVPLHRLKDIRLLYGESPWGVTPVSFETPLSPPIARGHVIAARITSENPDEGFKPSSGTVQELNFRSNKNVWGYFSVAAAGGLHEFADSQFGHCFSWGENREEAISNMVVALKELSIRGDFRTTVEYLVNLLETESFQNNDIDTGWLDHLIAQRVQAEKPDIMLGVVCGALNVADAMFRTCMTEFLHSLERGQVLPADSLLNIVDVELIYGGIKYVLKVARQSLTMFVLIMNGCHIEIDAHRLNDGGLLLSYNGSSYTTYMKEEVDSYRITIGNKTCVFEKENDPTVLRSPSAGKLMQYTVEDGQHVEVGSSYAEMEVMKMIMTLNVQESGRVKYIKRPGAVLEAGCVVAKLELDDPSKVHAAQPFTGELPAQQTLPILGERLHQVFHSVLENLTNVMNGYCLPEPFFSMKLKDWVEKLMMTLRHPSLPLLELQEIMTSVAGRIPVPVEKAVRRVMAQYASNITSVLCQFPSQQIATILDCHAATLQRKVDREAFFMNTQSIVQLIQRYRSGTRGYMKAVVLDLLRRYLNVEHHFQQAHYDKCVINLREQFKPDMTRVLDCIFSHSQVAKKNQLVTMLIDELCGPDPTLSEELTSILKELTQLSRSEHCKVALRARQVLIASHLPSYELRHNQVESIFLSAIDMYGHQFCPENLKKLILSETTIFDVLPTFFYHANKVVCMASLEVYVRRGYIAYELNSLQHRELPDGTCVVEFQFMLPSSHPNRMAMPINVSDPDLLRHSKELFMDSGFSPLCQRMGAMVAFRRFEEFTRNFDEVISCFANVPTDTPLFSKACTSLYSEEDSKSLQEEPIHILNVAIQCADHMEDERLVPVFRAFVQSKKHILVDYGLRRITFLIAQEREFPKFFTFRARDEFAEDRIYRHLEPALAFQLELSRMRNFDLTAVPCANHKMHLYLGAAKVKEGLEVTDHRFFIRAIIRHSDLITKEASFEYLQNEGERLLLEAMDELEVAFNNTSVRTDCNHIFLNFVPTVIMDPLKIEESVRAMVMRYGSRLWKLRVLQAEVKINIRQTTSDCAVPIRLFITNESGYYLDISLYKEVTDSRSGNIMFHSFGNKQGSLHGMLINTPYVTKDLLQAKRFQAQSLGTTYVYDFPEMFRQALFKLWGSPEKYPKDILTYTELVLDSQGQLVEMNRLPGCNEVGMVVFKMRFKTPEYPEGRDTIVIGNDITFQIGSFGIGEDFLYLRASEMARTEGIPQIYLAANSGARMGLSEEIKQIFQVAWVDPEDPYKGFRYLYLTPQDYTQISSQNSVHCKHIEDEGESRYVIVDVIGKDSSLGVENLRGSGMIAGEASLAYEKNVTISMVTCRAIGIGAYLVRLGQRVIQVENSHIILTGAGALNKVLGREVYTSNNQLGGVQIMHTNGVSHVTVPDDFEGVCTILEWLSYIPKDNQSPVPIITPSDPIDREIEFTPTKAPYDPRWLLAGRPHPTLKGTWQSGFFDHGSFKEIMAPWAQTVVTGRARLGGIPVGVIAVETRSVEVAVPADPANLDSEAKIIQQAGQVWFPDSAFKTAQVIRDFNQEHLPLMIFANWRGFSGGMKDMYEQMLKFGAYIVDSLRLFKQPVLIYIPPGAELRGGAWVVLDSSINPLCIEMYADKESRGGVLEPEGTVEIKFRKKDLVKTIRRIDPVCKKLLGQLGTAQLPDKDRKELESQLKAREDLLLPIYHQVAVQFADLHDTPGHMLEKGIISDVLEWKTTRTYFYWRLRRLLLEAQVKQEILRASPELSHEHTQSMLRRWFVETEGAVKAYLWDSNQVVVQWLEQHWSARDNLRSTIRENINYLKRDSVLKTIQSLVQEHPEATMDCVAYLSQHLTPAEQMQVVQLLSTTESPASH
In words: Direct inhibition of ACC2 activity (14C-bicarbonate incorporation). It counts as biochemical. Here is the method: For example direct inhibition of ACC1 and ACC2 activity, for compounds of Formula (1) were determined using preparations of ACC1 from rat liver and ACC2 from rat skeletal muscle.
[1] Preparation of ACC1 and ACC2. ACC1 was obtained from rat liver and ACC2 was obtained from rat skeletal muscle based upon standard procedures such as those described by Thampy and Wakil (J. Biol. Chem. 260: 6318-6323; 1985) using the following method.
Male CD rats weighing 150-200 g are fasted for 2 days and then fed a high sucrose diet (AIN-76A rodent diet; Cat # D10001, Research Diets Inc., New Brunswick, N.J.), for 3 days at which time they are sacrificed by CO2 asphyxiation. The livers (for ACC1 preparation) or skeletal muscle tissue (for ACC2 preparation) are removed, rinsed in ice-cold phosphate-buffered saline (PBS), and homogenized in 5 volumes of homogenization buffer (50 mM potassium phosphate, pH 7.5, 10 mM EDTA, 10 mM 2-mercaptoethanol, 2 mM benzamidine, 0.2 mM phenylmethylsulfonylfluoride (PMSF), 5 mg/L each leupeptin, aprotinin, and antitrypsin) in a Waring® blender for 1 minute at 4° C. All subsequent operations are carried out at 4° C. The homogenate is made 3% with respect to polyethylene glycol (PEG) by the addition of 50% PEG solution and centrifuged at 20,000×g for 15 minutes. The resulting supernatant is adjusted to 5% PEG with the addition of 50% PEG solution and stirred for 5 minutes. The pellet (contains ACC activity) is collected by centrifugation at 20,000×g for 20 minutes, rinsed with Ice-cold doubly distilled water to remove excess PEG and re-suspended in one-fourth the original homogenate volume with homogenization buffer. Ammonium sulfate (200 g/liter) is slowly added with stirring. After 45 minutes the enzyme is collected by centrifugation for 30 minutes at 20,000×g, re-suspended in 10 ml of 50 mM HEPES, pH7.5, 0.1 mM DTT, 1.0 mM EDTA, and 10% glycerol and desalted on a Sephadex™ G-25 column (2.5 cm-x 50 cm) (Pharmacia, Piscataway N.J. now GE Healthcare) […] equilibrated with the same buffer. The desalted enzyme preparation is stored in aliquots at −70° C. Immediately prior to use, frozen ACC1 or ACC2 aliquots are thawed, diluted to 500 μg/ml in buffer containing 50 mM HEPES, pH7.5, 1.0 mM MgCl2, 10 mM tripotassium citrate, 2.0 mM dithiothreitol (DTT), and 0.75 mg/ml fatty acid-free bovine serum albumin (BSA) and pre-incubated at 37° C. for 30 minutes.
[2] Measurement of ACC inhibition. The procedures for measuring ACC1 inhibition and ACC2 inhibition are identical except for the source of the isozyme. For measurement of ACC activity and assessment of ACC inhibition, test compounds are dissolved in dimethylsulfoxide (DMSO) and 1 μL aliquots are placed in 0.5 ml polypropylene tubes. Control tubes contain 1 μL of DMSO alone. Tubes are incubated at 37° C. in a constant temperature water bath. […] The reaction is then initiated by the addition of 10 μL of preincubated ACC fraction prepared as described above. After 7 minutes the reaction is terminated by the addition of 50 μL of 6N HCl and a 150 μL aliquot of the reaction mixture is transferred to glass scintillation vials and evaporated to dryness at 90° C. for at least 1 hour. The dried vials are then cooled, 0.5 ml of water and 5.5 ml of Ready Safe liquid scintillation fluid (Beckman Coulter Inc., Fullerton, Calif.) are added, and the radioactivity is determined using a liquid scintillation counter. Tubes that received HCl before ACC served as blanks.
[3] Specificity for ACC1 vs ACC2 inhibition. The specificity of a compound for Inhibiting ACC1 vs ACC2 can be determined by comparing the concentration of test compound required to inhibit 50% of the activity contained in an aliquot of ACC1 as compared with the concentration of the same compound required to inhibit 50% of the activity of an aliquot of ACC2.

In general, IC50 refers to the concentration that inhibits the measured activity by half. For the compound `Cc1cc(C(=O)N2CCC3(CC2)CC(=O)c2cc(Cl)c(F)cc2O3)cc2cn[nH]c12` [Ex. A21, 6-chloro-7-fluoro-1′-[(7-methyl-1H-indazol-5-yl)carbonyl]spiro[chromene-2,4′-piperidin]-4(3H)-one], the inhibition at 30 mg/kg in assay [1] was 59.5%. At ACC1 from rat liver (ACC1 from rat liver), the half-maximal inhibitory concentration (IC50) was found to be 96.6 nM.

For `N#Cc1ccc2c(c1)C(=O)CC1(CCN(C(=O)c3cccc(-c4cc[nH]n4)c3)CC1)O2` [Ex. M33, 4-oxo-1′-[3-(1H-pyrazol-3-yl)benzoyl]3,4-dihydrospiro[chromene-2,4′-piperidine]-6-carbonitrile], the IC50 stood at 1860 nM in assay [2] (Table of Examples M1-M36) and 816 nM on ACC1 from rat liver (Table of Examples M1-M36).

Turning to `Cc1cc2c(cc1Cl)C(=O)CC1(CCN(C(=O)c3cccc(-c4cc[nH]n4)c3)CC1)O2` [Ex. M3, 6-chloro-7-methyl-1′-[3-(1H-pyrazol-3-yl)benzoyl]spiro[chromene-2,4′-piperidin]-4(3H)-one], the IC50 in assay [2] (Table of Examples M1-M36) was found to be 434 nM; on ACC1 from rat liver (Table of Examples M1-M36), 105 nM.

Regarding `CC(C)Oc1ccc2c(c1)C(=O)CC1(CCN(C(=O)c3cc(Cl)c4[nH]ncc4c3)CC1)O2` [Ex. B2, 1′-[(7-chloro-1H-indazol-5-yl)carbonyl]-6-isopropoxyspiro[chromene-2,4′-piperidin]-4(3H)-one], the values for the IC50 (in assay [2] (ACC2 from rat skeletal muscle); against ACC1 from rat liver (ACC1 from rat liver)) were 31.1 nM and 16.1 nM, respectively.

Turning to `Cc1cc(C(=O)N2CCC3(CC2)CC(=O)c2cc(OC(F)(F)F)ccc2O3)cc2cn[nH]c12` [Ex. A12, 1′-[(7-methyl-1H-indazol-5-yl)carbonyl]-6-(trifluoromethoxy)spiro[chromene-2,4-piperidin]-4(3H)-one], the inhibition at 30 mg/kg in assay [1] turned out to be 38.7%. At ACC1 from rat liver (ACC1 from rat liver), this compound had an IC50 of 41.9 nM.

As to `Cc1cc2c(cc1C)C(=O)CC1(CCN(C(=O)c3ccc4[nH]ncc4c3)CC1)O2` [Ex. E1, 1′-(1H-indazol-5-ylcarbonyl)-6,7-dimethylspiro[chromene-2,4′-piperidin]-4(3H)-one], the inhibition at 30 mg/kg in assay [1] amounted to 30.9%. Further, on ACC1 from rat liver (ACC1 from rat liver), the IC50 came out at 96.5 nM.

For the compound `Cc1cc2c(cc1Cl)C(=O)CC1(CCN(C(=O)c3cc(Cl)c4[nH]ncc4c3)CC1)O2` [Ex. B4, 6-chloro-7-methyl-1′-[(7-chloro-1H-indazol-5-yl)carbonyl]spiro[chromene-2,4′-piperidin]-4(3H)-one], the IC50 in assay [2] (ACC2 from rat skeletal muscle) was determined as 127 nM; at ACC1 from rat liver (ACC1 from rat liver), 56.8 nM.

Turning to `CCOc1ccc2c(c1)C(=O)CC1(CCN(C(=O)c3cc(C)c4[nH]ncc4c3)CC1)O2` [Ex. A4, 6-ethoxy-1′-[(7-methyl-1H-indazol-5-yl)carbonyl]spiro[chromene-2,4′-piperidin]-4(3H)-one], the values for the IC50 (in assay [2] (ACC2 from rat skeletal muscle); on ACC1 from rat liver (ACC1 from rat liver)) were 29.9 nM and 19.5 nM, respectively.

`COc1ccc2c(c1)C(=O)CC1(CCN(C(=O)c3cc(C)c4[nH]ncc4c3)CC1)O2` [Ex. A7, 6-methoxy-1′-[(7-methyl-1H-indazol-5-yl)carbonyl]spiro[chromene-2,4′-piperidin]-4(3H)-one trifluoroacetic acid salt]: the IC50 in assay [2] (ACC2 from rat skeletal muscle) turned out to be 138 nM; against ACC1 from rat liver (ACC1 from rat liver) it was 32.5 nM.

Turning to `CC(C)Oc1ccc2c(c1)C(=O)CC1(CCN(C(=O)c3cccc(-c4cc[nH]n4)c3)CC1)O2` [Ex. N3, 6-isopropoxy-1′-[3-(1H-pyrazol-3-yl)benzoyl]spiro[chromene-2,4′-piperidin]-4(3H)-one], the IC50 stood at 54.8 nM in assay [2] (ACC2 from rat skeletal muscle) and 48.3 nM against ACC1 from rat liver (ACC1 from rat liver).

Turning to `CCOc1ccc2c(c1)C(=O)CC1(CCN(C(=O)c3cc(Cl)c4[nH]ncc4c3)CC1)O2` [Ex. B3, 1′-[(7-chloro-1H-indazol-5-yl)carbonyl]-6-ethoxyspiro[chromene-2,4′-piperidin]-4(3H)-one], the IC50 in assay [2] (ACC2 from rat skeletal muscle) came out at 34.3 nM; on ACC1 from rat liver (ACC1 from rat liver), 21.4 nM.

For `Cc1cc2c(cc1Cl)C(=O)CC1(CCN(C(=O)c3ccc4[nH]ncc4c3)CC1)O2` [Ex. E2, 6-chloro-1′-(1H-indazol-5-ylcarbonyl)-7-methylspiro[chromene-2,4′-piperidin]-4(3H)-one], in assay [1], the inhibition at 30 mg/kg came to 30.7%. In addition, the midpoint of inhibition against ACC1 from rat liver (ACC1 from rat liver), the IC50, lay at 108 nM.

`COc1ccc2c(c1)C(=O)CC1(CCN(C(=O)c3cc(Cl)c4[nH]ncc4c3)CC1)O2` [Ex. B5, 1′-[(7-chloro-1H-indazol-5-yl)carbonyl]-6-methoxyspiro[chromene-2,4′-piperidin]-4(3H)-one]: the IC50 in assay [2] (ACC2 from rat skeletal muscle) amounted to 231 nM; against ACC1 from rat liver (ACC1 from rat liver), 81 nM.

`CCOc1ccc2c(c1)C(=O)CC1(CCN(C(=O)c3cccc(-c4cc[nH]n4)c3)CC1)O2` [Ex. N2, 6-ethoxy-1′-[3-(1H-pyrazol-3-yl)benzoyl]spiro[chromene-2,4′-piperidin]-4(3H)-one]: the IC50 came to 91.7 nM in assay [2] (ACC2 from rat skeletal muscle) and 43.2 nM against ACC1 from rat liver (ACC1 from rat liver).

For the compound `Cc1cc(C(=O)N2CCC3(CC2)CC(=O)c2cc(OC(C)C)ccc2O3)cc2cn[nH]c12` [Ex. A3, 6-isopropoxy-1′-[(7-methyl-1H-indazol-5-yl)carbonyl]spiro[chromene-2,4′-piperidin]-4(3H)-one], the figures for the IC50 (in assay [2] (ACC2 from rat skeletal muscle); at ACC1 from rat liver (ACC1 from rat liver)) were 17.2 nM and 14.5 nM, respectively.
